Source: paper PMC6259253, “Synthesis of Benzofuran Derivatives via Rearrangement and Their Inhibitory Activity on Acetylcholinesterase” (Molecules, 2010)

target: T1, AChE (Rattus norvegicus, UniProt P37136); assay: biochemical; conditions: AChE from rat brain homogenate; Ellman's method; means ± standard deviation of three independent experiments; read-out: AChE inhibition (IC50)
T1 construct: utilizing freshly prepared AChE from rats brain homogenate; from tissue; host or cells: rat whole brain except cerebellum, homogenate
Experimental: AChE activity was measured in duplicate by the spectrophotometric method reported by Ellman et al. with some modifications, mainly involving the source of the enzyme and the reference compound. Rat brain homogenate was used as the enzyme source. The whole brain except for the cerebellum was homogenized in nine volumes of 100 mM sodium phosphate buffer (pH 7.0). The test compounds were dissolved in dimethyl sulphoxide (DMSO). The AChE activity was expressed as a change in OD at 412 nm.

T1 sequence (P37136 32-614): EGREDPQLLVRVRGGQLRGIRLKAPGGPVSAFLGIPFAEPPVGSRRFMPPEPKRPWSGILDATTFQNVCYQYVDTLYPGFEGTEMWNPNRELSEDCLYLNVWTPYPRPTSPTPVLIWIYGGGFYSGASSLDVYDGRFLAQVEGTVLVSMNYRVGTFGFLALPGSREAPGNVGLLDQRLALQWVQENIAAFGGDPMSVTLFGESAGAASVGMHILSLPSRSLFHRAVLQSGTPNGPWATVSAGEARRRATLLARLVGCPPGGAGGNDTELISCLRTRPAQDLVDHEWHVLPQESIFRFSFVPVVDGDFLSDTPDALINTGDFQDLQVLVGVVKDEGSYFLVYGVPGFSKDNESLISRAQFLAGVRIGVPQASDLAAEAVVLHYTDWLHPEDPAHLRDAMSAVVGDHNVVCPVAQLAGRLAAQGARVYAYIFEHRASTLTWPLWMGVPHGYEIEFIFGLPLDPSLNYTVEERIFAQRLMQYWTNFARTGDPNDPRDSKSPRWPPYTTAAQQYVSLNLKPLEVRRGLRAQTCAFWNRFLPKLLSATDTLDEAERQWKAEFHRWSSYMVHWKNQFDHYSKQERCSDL

| SMILES | IC50 |
| --- | --- |
| Cc1ccc(N2CCN(C(=O)c3oc4ccc(C)cc4c3N3CCOCC3)CC2)cc1 [Compound A4, (4-p-Tolylpiperazin-1-yl)-(5-methyl-3-morpholinobenzofuran-2-yl) methanone] | 11 ± 0.2 µM |
| Cc1ccc2oc(C(=O)N3CCN(c4ccccc4C)CC3)c(N3CCOCC3)c2c1 [Compound A2, (4-o-Tolylpiperazin-1-yl)-(5-methyl-3-morpholinobenzofuran-2-yl) methanone] | 32 ± 0.1 µM |
| COc1ccc(N2CCN(C(=O)c3oc4ccc(C)cc4c3N3CCOCC3)CC2)cc1 [Compound A5, (4-(4-Methoxyphenyl)piperazin-1-yl) (5-methyl-3-morpholinobenzofuran-2-yl) methanone] | 21 ± 0.1 µM |
